Measured values as given in patent publication US20190367516A1 (Bayer Pharma Aktiengesellschaft, priority 2015, published 2019).
Read-outs that look alike come from different tables or passages of the source.

Experiments:
human M2 receptor [1] = biological target: T1, human M2 receptor (Homo sapiens, UniProt P08172); details: for Efficiency: boosting of the acetylcholine effect at EC20 acetylcholine concentration
T1 sequence (P08172 1-466): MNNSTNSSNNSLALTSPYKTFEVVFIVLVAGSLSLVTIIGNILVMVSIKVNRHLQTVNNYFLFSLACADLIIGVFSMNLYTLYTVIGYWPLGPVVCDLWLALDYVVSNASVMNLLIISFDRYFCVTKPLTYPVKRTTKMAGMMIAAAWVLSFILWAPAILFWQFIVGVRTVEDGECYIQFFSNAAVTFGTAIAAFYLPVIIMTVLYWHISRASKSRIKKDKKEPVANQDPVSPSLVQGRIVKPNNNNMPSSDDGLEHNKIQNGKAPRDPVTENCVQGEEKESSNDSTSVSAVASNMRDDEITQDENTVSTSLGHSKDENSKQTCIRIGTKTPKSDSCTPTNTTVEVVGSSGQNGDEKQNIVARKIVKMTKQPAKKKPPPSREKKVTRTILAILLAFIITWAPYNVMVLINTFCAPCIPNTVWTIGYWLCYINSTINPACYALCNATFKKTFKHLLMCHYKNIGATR

anaesthetized rats = assay: Effects on the heart rate in anaesthetized rats (B-9); assay type: in vivo, rat; details: i.v. infusion via jugular vein over 5 min, dose not given, in some cases means of several determinations
Protocol: B-9. Effects of the Test Substances on the Heart Rate in Anaesthetized Rats
Male rats of the strain (WI) WU Br from the breeder Charles River are anaesthetized initially with a 4-5% isoflurane inhalation for approx. 3 min. Subsequently, anaesthesia is maintained using a 1.5% isoflurane inhalation. For this purpose, the anaesthetized animals are fixed on a heated operating plate. By means of visual inspection and between toe reflex, the depth of anaesthesia is checked.
For the application of the test substance, an i.v. route into the jugular vein is used. A caudal to cranial skin incision is then made longitudinally and both the cervical musculature and the salivary glands are severed. The right common carotid artery is exposed and blood supply is arrested both proximally and distally. Using microinstrumentation, a TIP catheter (1.2 F) is introduced into the vessel in order to measure the arterial pressure and the heart rate.
Initially, both parameters are monitored for 10 min in the basal state without substance addition. The substances to be investigated are dissolved in suitable solvent mixtures and subsequently administered at various dosages to a group of animals in each case via the jugular vein by an infusion pump over 5 min. A solvent-treated group is used as control under the same experimental conditions. The arterial blood pressure and heart rate with substance addition is determined for 20 min. The data are registered with the PowerLab system (AD instruments) and evaluated using the LabChart program (AD instruments).
The values determined in this manner for the percentage decrease in heart rate for individual working examples are given in Table 4 below (in some cases as means of a plurality of independent individual determinations): […]

human M2 receptor [2] = biological target: T1, human M2 receptor; assay type: cell-based; details: α >1 = positive cooperativity
[3] = Receptor activity EC50, allosteric potency at EC20 acetylcholine, M2-GIRK1/4 reporter cells, in some cases mean of two or more determinations
[4] = shift of acetylcholine dose-response curve (Allosteric EC50 shift)
[5] = Receptor activity EC50, M2-GIRK1/4 activation test, acetylcholine at EC20, allosteric potency, in some cases mean values from two or more determinations
[6] = shift in the acetylcholine dose-response curve (Allosteric EC50 shift, GraphPad PRISM)
[7] = read-out: Efficiency, boosting of the acetylcholine effect at EC20 acetylcholine concentration, M2-GIRK1/4 reporter cells

SMILES	EC50 (human M2 receptor [1]; [3]) [nM]	Efficiency (human M2 receptor [1]; M2-GIRK1/4 reporter cells) [%]	Reduction in heart rate (%) (anaesthetized rats)	Cooperativity (alpha factor) (human M2 receptor [2]; [4])	EC50 (human M2 receptor [1]; [5]) [nM]	Cooperativity (alpha factor) (human M2 receptor [2]; [6])	Emax (human M2 receptor [1]; [7]) [%]	Emax (human M2 receptor [1]; read-out: Efficiency) [%]
CC(NC(=O)c1cn(-c2c(F)cc(F)cc2F)c2nc(N3CCNC3=O)ccc2c1=O)C(F)(F)C(F)(F)F (racemic) [Example 541, 4-Oxo-7-(2-oxoimidazolidin-1-yl)-N-[3,3,4,4,4-pentafluorobutan-2-yl]-1-(2,4,6-trifluorophenyl)-1,4-dihydro-1,8-naphthyridine-3-carboxamide]	7	92.2	14	31	–	–	–	–
O=C(NC(c1ccccc1Cl)C(F)(F)F)c1cn(-c2ccc(F)cc2F)c2nc(N3C[C@@H](O)CC3=O)ccc2c1=O (single isomer, unassigned) [Example 212]	–	–	11	–	41	54	–	–
O=C(NC(c1ccccc1Cl)C(F)(F)F)c1cn(-c2ccc(F)cc2F)c2nc(N3C[C@@H](O)CC3=O)ccc2c1=O (single isomer, unassigned) [Example 213]	–	–	14	–	19	55	–	–
O=C(N[C@@H](C1CC1)C(F)(F)F)c1cn(-c2ccc(F)cc2F)c2nc(N3C[C@@H](O)CC3=O)ccc2c1=O (single isomer, unassigned) [Example 284]	–	–	11	–	61	–	–	–
O=C(N[C@H](C1CC1)C(F)(F)F)c1cn(-c2c(F)cccc2F)c2nc(N3C[C@@H](O)CC3=O)ccc2c1=O (single isomer, unassigned) [Example 296]	–	–	11	–	28	49	–	–
O=C(N[C@@H](C1CC1)C(F)(F)F)c1cn(-c2c(F)cccc2F)c2nc(N3C[C@@H](O)CC3=O)ccc2c1=O (single isomer, unassigned) [Example 297]	–	–	10	–	37	47	–	–
CC[C@H](NC(=O)c1cn(-c2c(F)cc(F)cc2Cl)c2nc(N3C[C@@H](O)CC3=O)ccc2c1=O)C(F)(F)F (single isomer, unassigned) [Example 400]	5	100.0	11	32	–	–	–	–
CCC(NC(=O)c1cn(-c2c(F)cc(F)cc2F)c2nc(N3C[C@@H](O)CC3=O)ccc2c1=O)C(F)(F)C(F)(F)F (single isomer, unassigned) [Example 520]	2	–	15	36	–	–	100	–
CCC(NC(=O)c1cn(-c2c(F)cc(F)cc2F)c2nc(N3C[C@@H](O)[C@H](O)C3)ccc2c1=O)C(F)(F)C(F)(F)F (single isomer, unassigned) [Example 523]	–	–	15	41	–	–	–	100
CC(NC(=O)c1cn(-c2c(F)cc(F)cc2F)c2nc(N3C[C@@H](O)CC3=O)ccc2c1=O)C(F)(F)C(F)(F)F (single isomer, unassigned) [Example 530]	6	–	13	44	–	–	98.7	–
CC(NC(=O)c1cn(-c2c(F)cc(F)cc2F)c2nc(N3C[C@@H](O)[C@H](O)C3)ccc2c1=O)C(F)(F)C(F)(F)F (single isomer, unassigned) [Example 550]	–	–	13	34	–	–	–	100
CC[C@@H](NC(=O)c1cn(-c2ccc(F)cc2F)c2nc(N3CC4C(C3)C4(F)F)ccc2c1=O)C(F)(F)F (stereo partly drawn) [Example 28, 7-(6,6-Difluoro-3-azabicyclo[3.1.0]hex-3-yl)-1-(2,4-difluorophenyl)-4-oxo-N-[(2R)-1,1,1-trifluorobutan-2-yl]-1,4-dihydro-1,8-naphthyridine-3-carboxamide]	–	–	9	–	23	25	–	–
CC[C@H](NC(=O)c1cn(-c2ccc(F)cc2F)c2nc(N3C[C@@H](O)CC3=O)ccc2c1=O)C(F)(F)F [Example 174, 1-(2,4-Difluorophenyl)-7-[(4S)-4-hydroxy-2-oxopyrrolidin-yl]-4-oxo-N-[(2S)-1,1,1-trifluorobutan-2-yl]-1,4-dihydro-1,8-naphthyridine-3-carboxamide]	–	–	7	–	113	–	–	98.6
CC[C@@H](NC(=O)c1cn(-c2ccc(F)cc2F)c2nc(N3CC[C@H](F)C3)ccc2c1=O)C(F)(F)F [Example 189, 1-(2,4-Difluorophenyl)-7-[(3S)-3-fluoropyrrolidin-1-yl]-4-oxo-N-[(2R)-1,1,1-trifluorobutan-2-yl]-1,4-dihydro-1,8-naphthyridine-3-carboxamide]	–	–	7	–	23	24	–	–
O=C(Nc1c(Cl)cccc1Cl)c1cn(-c2ccc(F)cc2F)c2nc(N3C[C@@H](O)CC3=O)ccc2c1=O [Example 201, N-(2,6-Dichlorophenyl)-1-(2,4-difluorophenyl)-7-[(4S)-4-hydroxy-2-oxopyrrolidin-1-yl]-4-oxo-1,4-dihydro-1,8-naphthyridine-3-carboxamide]	–	–	6	–	39	39	–	–
O=C(N[C@H](C1CC1)C(F)(F)F)c1cn(-c2ccc(F)cc2F)c2nc(N3C[C@@H](O)CC3=O)ccc2c1=O [Example 271, N-[(1R)-1-Cyclopropyl-2,2,2-trifluoroethyl]-1-(2,4-difluorophenyl)-7-[(4S)-4-hydroxy-2-oxopyrrolidin-1-yl]-4-oxo-1,4-dihydro-1,8-naphthyridine-3-carboxamide]	–	–	8	–	40	43	–	–
CC[C@@H](NC(=O)c1cn(-c2c(F)cccc2F)c2nc(N3C[C@@H](O)CC3=O)ccc2c1=O)C(F)(F)F [Example 275, 1-(2,6-Difluorophenyl)-7-[(4S)-4-hydroxy-2-oxopyrrolidin-1-yl]-4-oxo-N-[(2R)-1,1,1-trifluorobutan-2-yl]-1,4-dihydro-1,8-naphthyridine-3-carboxamide]	–	–	9	–	18	38	–	92.8
CC[C@@H](NC(=O)c1cn(-c2c(F)cc(F)cc2F)c2nc(N3C[C@@H](O)CC3=O)ccc2c1=O)C(F)(F)F [Example 325, 7-[(4S)-4-Hydroxy-2-oxopyrrolidin-1-yl]-4-oxo-N-[(2R)-1,1,1-trifluorobutan-2-yl]-1-(2,4,6-trifluorophenyl)-1,4-dihydro-1,8-naphthyridine-3-carboxamide]	–	–	13	–	7	56	–	93
CC[C@@H](NC(=O)c1cn(-c2c(F)cccc2F)c2nc(N3C[C@@H](O)[C@@H](O)C3)ccc2c1=O)C(F)(F)F [Example 648, 1-(2,6-Difluorophenyl)-7-[(3R,4S)-3,4-dihydroxypyrrolidin-1-yl]-4-oxo-N-[(2R)-1,1,1-trifluorobutan-2-yl]-1,4-dihydro-1,8-naphthyridine-3-carboxamide]	81	–	–	49	–	–	96.5	–
COC(=O)[C@@H]1CN(c2ccc3c(=O)c(C(=O)N[C@@H](C4CC4)C(F)(F)F)cn(-c4c(F)cc(F)cc4F)c3n2)C(=O)O1 [Example 666, Methyl (5S)-3-[6-{[(1S)-1-cyclopropyl-2,2,2-trifluoroethyl]carbamoyl}-5-oxo-8-(2,4,6-trifluorophenyl)-5,8-dihydro-1,8-naphthyridin-2-yl]-2-oxo-1,3-oxazolidine-5-carboxylate]	22	–	–	60	–	–	100	–
